According to ChEMBL document CHEMBL3507680, “University of Dundee, Gates Library screen for HepG2 cell viability”:

Assay: Human HepG2 cell viability assay in 384 well format
Assay type: toxicity, cell-based
Parameters: dose 125 nL, time 70.5 hour; concentration not given beside the values
Settings: HepG2 cells, read-out: Inhibition

Row | SMILES | cytotoxicity at 70.5 h [%]
1 | O=C(C1CC1)N1CC2(CCNCC2)c2cc(F)ccc21 | -11.1
2 | Cn1nc(C(=O)N2CCOCC2)cc1C(=O)Nc1ccc(Cl)cc1Cl | -2.86
3 | O=C(CC1CC1)N1CCN(Cc2cccnc2)c2ncccc2C1 | -9.33
4 | CN(C)C(=O)N1CC2(CCOCC2)c2cc(NS(=O)(=O)C3CC3)ccc21 | 11.5
5 | CCn1cc(C(=O)Nc2ccccc2C(=O)OC)cn1 | 13.1
6 | COc1ccccc1CC(C)CC(=O)NS(=O)(=O)C(C)C (centres undefined) | 9.2
7 | O=C(CN1CC(n2cccn2)C1)NCCCc1ccccc1 | -8.01
8 | COc1cccc(CN2CCCC2Cn2nc(C)nc2C)c1 (centres undefined) | 3.03
9 | O=S(=O)(c1ccccc1)N1CCCC(c2nccs2)C1 (centres undefined) | -2
10 | COc1ccc(C(=O)n2nc(C)c(C)c2C)cc1 | -2.07
11 | COc1ccc(CCN2C(=O)O[C@@H]3CN(C4CCSCC4)C[C@@H]32)cc1 | -6.37
12 | Cc1cc(-c2cnn(CCNC(=O)c3cnn(C)c3)c2C2CC2)on1 | -2.33
13 | CCc1ncc2c(n1)CN(Cc1nc(-c3ccccn3)no1)CC2 | 33.7
14 | CN(C)S(=O)(=O)N1CCCC1CC(=O)c1cccs1 (centres undefined) | -9.51
15 | CCOCCCNC(=O)c1nc2c(s1)CCCN2c1ccc(C)nn1 | -7.8
16 | O=C(Cn1cnc(-c2cccs2)cc1=O)Nc1cccnc1 | -4.25
17 | COc1ccc(NC(=O)N2CCC(CSC)C2)cc1C (centres undefined) | 2.45
18 | CC(C)C1CN(C(=O)c2csc(CN(C)C)n2)CCC(=O)N1CC1CC1 (centres undefined) | -10.8
19 | COCCOC1CCN(C(C(=O)O)c2ccc(F)c(Cl)c2)CC1 (centres undefined) | -9.08
20 | O=C(c1cscn1)N1CC[C@@H]2[C@@H]1CCN2c1ccccn1 | -2.32
21 | CS(=O)(=O)N1CCCC1c1ccnc2nccn12 (centres undefined) | -12.2
22 | CCc1nc(C)cn1C(=O)Nc1ccc(C)cc1 | -1.55
23 | Cn1c(C(F)(F)F)nn(CCNC(=O)c2ccccn2)c1=O | -7.74

Row | SMILES | cytotoxicity at 70.5 h [%]
24 | CCN(C1CCN(c2cccc(F)c2C(C)=O)CC1)S(C)(=O)=O | -5.28
25 | Cc1nc2sccn2c1C(=O)N1CCc2c(nc(N)[nH]c2=O)C1 | -4.21
26 | CCN(Cc1noc(CC(C)C)n1)Cc1ccccc1C | -1.58
27 | CN(CC(N)=O)C(=O)c1cn(-c2ccc(Br)cc2)cn1 | 23.1
28 | CCCn1ncc(C(=O)N2CCN(C3CCSCC3)CC2)c1C | 2.68
29 | COc1cccc(CNc2cccnc2-n2cccn2)c1OC | -14.7
30 | O=C(NCCn1ccnc1)N1CCN(Cc2ccco2)CC1 | -3.81
31 | CC(C)CNC(=O)Cc1cnc(-n2cccc2)s1 | -18.5
32 | Cc1cc(NC(=O)CNC2CCc3ncnn3C2)on1 (centres undefined) | 9.31
33 | CCOCCn1c(=O)n(CCC=C(C)C)c2cc(C(=O)O)cnc21 | -4.64
34 | CN(C)C(=O)CN1CCN(Cc2coc(-c3cccc(F)c3)n2)CC1 | -11.2
35 | CC(=O)N1CCN(c2ccc(Cl)nn2)C(=O)C1 | -7.52
36 | CCc1oc(C(=O)NC(C)Cc2cnccn2)cc1CN1CCCC1 (centres undefined) | -14.2
37 | CSc1nccc(N2CCCC(c3nccn3C(C)C)C2)n1 (centres undefined) | 17.1
38 | CCO[C@@H]1CC[C@H]2[C@H]1OCCN2S(=O)(=O)c1cn(C)cn1 | -1.5
39 | Cc1ccc(OCc2cccc(C(=O)N(C)C(C)CC#N)c2)cn1 (centres undefined) | 0.55
40 | O=C1NCCCCC1Sc1n[nH]c(=O)n1C1CC1 (centres undefined) | 15.9
41 | O=C(NCc1ccoc1)Nc1cc(C(F)(F)F)c[nH]c1=O | 1.11
42 | COc1ccc(CNCC2CN(C3CC3)CCO2)cc1C (centres undefined) | -4.72
43 | CC(C)NC(=O)N1CCC2(CC(C(=O)NCc3cccnc3)=NO2)C1 (centres undefined) | -11.9
44 | CCOCCC(=O)N(C)Cc1noc(C(C)C)n1 | 24.4
45 | CCNC(=O)N1C[C@@H]2OCC(=O)N(CC3CCCCC3)[C@@H]2C1 | -3.95
46 | CNC(=O)[C@H]1C[C@@H]2CN(Cc3ccccc3)C[C@H]1O2 | -5.88

Row | SMILES | cytotoxicity at 70.5 h [%]
47 | O=C(CC1CSc2nccc(=O)n21)NCc1ccco1 (centres undefined) | -1.36
48 | COCC(=O)NC1CC2(CCN(Cc3ccco3)CC2)c2ccccc21 (centres undefined) | -12.8
49 | COCCCN(C)Cc1nc2c(cnn2C)c(=O)[nH]1 | 42.4
50 | O=C(CN1CCOCC1)N1CCC(c2cc(N3CCCC3)ncn2)CC1 | -3.77
51 | Cc1nn(C)c(N(C)C)c1CNCc1ccccc1Cn1ccnc1 | -1.82
52 | OCc1cn(Cc2cccc(C(F)(F)F)c2)nn1 | -9.88
53 | O=c1ccc2c(n1Cc1cccnc1)CCC(NCc1cccnc1)C2 (centres undefined) | -0.912
54 | O=C(c1ccc(=O)[nH]c1)N1CCc2c(nc(-c3cccnc3)[nH]c2=O)C1 | -3.02
55 | CN1[C@H](CN2CCCC2)C[C@@H]2CN(C(=O)c3ccsc3)CC[C@@H]21 | 11.2
56 | Cc1cc(CNC(=O)N2CCN(c3ccc(Cl)cn3)CC2)c(C)o1 | 18.2
57 | Cc1ccc(C(=O)NS(C)(=O)=O)cc1S(C)(=O)=O | 3.46
58 | COc1ccc(CNc2cnn(C)c(=O)c2Cl)cc1 | 1.82
59 | CC(C)NC(=O)C1CN(C(=O)N(C)C)CC12CCOCC2 (centres undefined) | -3.34
60 | O=S1(=O)C[C@@H]2[C@H](C1)N(Cc1nc3ccccc3[nH]1)CCN2CC1CC1 | -5.06
61 | Cc1cc(C)n(C2CCCN(C(=O)Cn3ccc(=O)n(C)c3=O)C2)n1 (centres undefined) | -7.57
62 | Cc1nnc2n1CCN(C(=O)c1cnc(C3CC3)s1)C2 | -2.96
63 | CCC[C@H]1CN(C(=O)c2ccc3[nH]c(CO)nc3c2)C[C@@H]1N | -27.1
64 | CC1=N[C@@]2(CC[C@@H]3CN(CC(C)C)C[C@@H]32)C(=O)N1C | -5.39
65 | OCCCN1CCc2[nH]nc(C(c3ccccc3)c3ccccc3)c2C1 | -3.77
66 | CC(C)=CCCC1(C)CCC(=O)N(CCc2csc(N)n2)C1 (centres undefined) | -5.28
67 | O=S(=O)(NCC1(O)CCCC1)c1ccccc1Br | -0.293
68 | Cc1cccn2c(=O)cc(CN3CCCC3Cn3cncn3)nc12 (centres undefined) | -5.2
69 | COC(=O)C(CNC(=O)Nc1nncs1)Cc1ccc(F)cc1 (centres undefined) | -4.56

Row | SMILES | cytotoxicity at 70.5 h [%]
70 | O=C1CC(c2ccc(F)cc2)c2snc(C(=O)O)c2N1 (centres undefined) | -10.3
71 | Cc1cnc(N2CC3(CCN(Cc4cccnc4)C3)C2)nc1 | -13.4
72 | COCCCNC(=O)NCc1cccn1Cc1ccccc1C | -20.3
73 | COc1cc(N2C[C@@H]3COC[C@]3(COCc3ccccn3)C2)ncn1 | -4.79
74 | Cc1ccc(-c2cc(C(=O)NCCN3CCCS3(=O)=O)[nH]n2)cc1 | 11.7
75 | Oc1nnc(-c2ccccc2)c2sc(N3CCCCC3)nc12 | 0.482
76 | Cc1ccc(CN2CCO[C@@H]3[C@@H](OCc4cccnc4)CC[C@@H]32)o1 | -4.63
77 | c1cc(C2CCCN2CC2CC2)n[nH]1 (centres undefined) | -9.13
78 | CC(C)C(=O)N1CCC2(CN(CC3CCCC3)C2)C1 | -5.09
79 | CSCC(C)(O)CNS(=O)(=O)c1ccc(Br)cc1 (centres undefined) | 23.8
80 | COCCN1CCC(Nc2ccc(C#N)cc2F)CC1 | -13.7
81 | Cc1ccc(CN2Cc3nnn(C)c3C(COCc3ccccc3)C2)s1 (centres undefined) | 4.74
82 | CCC(CO)N(Cc1ccccn1)C(=O)c1ncccc1C (centres undefined) | 15.2
83 | Cc1cccc(-c2noc([C@@H]3C[C@@H](O)CN3CC3CCCCC3)n2)c1 | -1.98
84 | Cc1ccc(C(=O)NC2CCN(Cc3nc(C(C)C)no3)CC2)s1 | -5.38
85 | CCOc1ccccc1-n1c(C2CCC2)n[nH]c1=O | -18.9
86 | Cc1cnc(C(=O)N2CCCN(Cc3csc(C)n3)CC2)cn1 | -5.72
87 | CNc1nc2c(s1)C(c1c(F)cccc1Cl)CC(=O)N2 (centres undefined) | -6.14
88 | O=C(c1ccc(F)cc1)N1C[C@H]2CCC[C@@]2(COCc2ccncc2)C1 | -0.425
89 | CCOC(=O)CNC(=O)c1cccnc1Oc1ccc(Cl)cc1 | -9.7
90 | CC1CN(c2ncnc3ccccc23)CCO1 (centres undefined) | 10
91 | O=C(NCCCOC1CCCCC1)C1NCCc2[nH]cnc21 (centres undefined) | -3.08
92 | O=C(c1ccccn1)N1CCC(Nc2cccnn2)CC1 | 2.46

Row | SMILES | cytotoxicity at 70.5 h [%]
93 | O=C(O)Cn1ccc(=O)c2cc(Cl)ccc21 | -16.7
94 | CCOc1nc2cnccc2n(CC(=O)NCc2ccco2)c1=O | -10.1
95 | O=S(=O)(N1CCCC1)N1CC(c2ccnc(Nc3ccccn3)n2)C1 | 8.07
96 | CCC(=O)N1CCC(NCc2cc(C(F)(F)F)ccc2Cl)C1 (centres undefined) | -4.4
97 | CC(=O)N1CCC(c2cncc(N3CCC(O)C3)n2)CC1 (centres undefined) | -2.45
98 | COCCCC1CCCCN1S(=O)(=O)c1cccc(C#N)c1 (centres undefined) | 4.41
99 | Cc1nccn1Cc1nnc(C2CCCN(Cc3cccnc3)C2)n1C (centres undefined) | 5.17
100 | Cc1cccc(CNC2CC(=O)N(Cc3cccc(F)c3)C2)c1 (centres undefined) | -4.77
101 | CNC(=O)[C@H]1C[C@@H]2CN(Cc3ccc(OC)cc3)C[C@H]1O2 | -4.08
102 | O=C(O)c1nnn(-c2cccc(C(F)(F)F)c2)c1C1CC1 | -3.12
103 | Cc1nc(C)n(C2CCCN(C(=O)CCOCC(C)C)C2)n1 (centres undefined) | 11
104 | O=C(c1ccccc1F)N1CC[C@@H]2CN(c3ncccn3)CCO[C@@H]2C1 | 4.95
105 | O=C(c1cc2c(s1)CCCC2)N1CCCC1Cn1cccn1 (centres undefined) | -4.37
106 | c1csc(CN(Cc2ccsc2)CC2CCCO2)n1 (centres undefined) | -1.84
107 | Cc1nc(-n2cnnc2)ccc1-c1cccc2c1CCNC2 | 6.99
108 | CC[C@@H]1N(Cc2ccsc2)CCC[C@]12CCC(=O)N2CCOC | -17.5
109 | CC(C)(C)Nc1c(C2CCN(C(=O)C(C)(C)C)CC2)nc2ccccn12 | -4.87
110 | C[C@@H]1CN(C(=O)CCc2nncn2C)C[C@@]1(O)C1CCC1 | -2.96
111 | CC(C)(C)NC(=O)c1cccc(CN2CCS(=O)(=O)CC2)c1 | -4.97
112 | CNC(=O)c1cnc2n1CCN(C(=O)Cc1ccccn1)C2 | -13.8
113 | CC(C)n1ccnc1CN1CCCN(C(=O)CC2CCCO2)CC1 (centres undefined) | 23.9
114 | CC(C)NC(=O)N1CCC2(CC1)CN(C(=O)NC(C)C)CCO2 | -10.3
